PMC8640510 (Cell Death and Differentiation, 2021)

Columns and labels:
HCoV-OC43 = HCoV-OC43 viral infectivity assay; format: cell-based; conditions: HCoV-OC43, HMC3 cells; combination with remdesivir; #79: 60 μM, #96: […] μM, #102: 25 μM
Description: HMC3 cells were seeded into black 96-well plates at 90% confluency. The next day, media was removed and replaced with complete media containing compounds/carrier 2 h prior to infection. After that, 5 μl of HCoV-OC43 virus was added to each well at an MOI of 0.005 for a final total volume of 100 μl/well. The plates were incubated at 33 °C. The viral suspension was removed after 12 h and drugs were added back to the cells to further incubate at 33 °C for 36 h. At 48 h post infection, cells were fixed with 4 % PFA in the media for 15 min. Residual PFA was quenched with a 50 mM NH4Cl and 100 mM NaCl solution. Cells were permeabilized and blocked in 5% FBS, 3% BSA, 0.05% Triton X-100 and 0.005% NaN3 in PBS for an hour. Anti-N antibody (Sigma 542-7D) was diluted in 4% FBS in PBS at 1:1000 dilution and was applied at 4 °C for 16 h. After several washing steps, cells were stained with AlexaFluor 594 and DAPI. For determination of cytotoxicity, HMC3 cells were seeded into opaque white wall 96-well plates. The following day, media was removed, replaced with media containing compounds/carrier and incubated for 48 h. After 48 h, cell viability was determined using alamarBlue™ Cell Viability Reagent using an Infinite 200 PRO microplate reader (Tecan).
Plates were scanned on a Citation 5 Imaging Multi-Mode Reader (BioTek). Gen5 software (version 3.10) was used for both image acquisition and analysis. A total number of 16 images/well were collected at 4x magnification to span the entire well. DAPI channel was used to build primary masks for the nucleus. Secondary masks were built within a 15 μm ring around the primary nuclear mask. Infection efficiencies were calculated from the ratio of the total fluorescence intensity within the secondary mask and the total area of the secondary mask for each well. Microscope images were prepared for publication using ImageJ (version 1.53i).

SARS-CoV-2 = SARS-CoV-2 viral infectivity assay; format: cell-based; conditions: A549+ACE2 cells; for direct antiviral effect on SARS-CoV-2 on their own: 72 h post infection, compound alone; for synergy with remdesivir, SARS-CoV-2: combination with remdesivir, #79: 60 μM, #96: […] μM, #102: 25 μM
[1] = clinical studies in Japan, gastric diseases; cited from earlier work

Row | SMILES | lowering of the EC50 of remdesivir (HCoV-OC43) | direct antiviral effect on SARS-CoV-2 on their own (SARS-CoV-2) | synergy with remdesivir, SARS-CoV-2 (SARS-CoV-2) | tolerability in humans [1]
1 | O=C(NCc1ccc(F)cc1)C1C(=O)N(O)C(=O)c2cc(C(F)(F)F)ccc21 (stereo not shown) [#79, 7-trifluoromethyl-N-(4-fluorobenzyl)−2-hydroxy-1,3-dioxo-4H-isoquinoline-4-carboxamide] | ~ 5 fold | no direct antiviral effect was detected | synergized with remdesivir | –
2 | CC(C)=CCc1c(O)ccc(C(=O)/C=C/c2ccc(O)cc2)c1O [#96, Isobavachalcone] | ~ 5 fold | no direct antiviral effect was detected | synergized with remdesivir | –
3 | CC(C)=CCOc1ccc(/C=C/C(=O)c2ccc(OCC=C(C)C)cc2OCC(=O)O)cc1 [#102, Sofalcone, reference compound] | ~ 5 fold | no direct antiviral effect was detected | synergized with remdesivir | well tolerated by humans
